What is called IC50 is the concentration needed to halve the response being measured. The term IC90 denotes the point of the concentration-response curve where the effect stands at 90%.

Data set [1] can be described thus: Selectivity index, ratio of IC50 for rat L6 cells to IC50 for bloodstream form of Trypanosoma brucei 427. It is filed as toxicity, cell-based. To be noted: read-out: Ratio IC50.
The next data set has as its system L6. The data set can be described thus: Cytotoxicity against rat L6 cells after 6 days by Alamar blue assay. The class given is cell-based. In general terms: Resazurin is reduced to fluorescent resorufin, in cell work by metabolically active cells.
Data set [2] can be described thus: Selectivity index, ratio of IC50 for rat L6 cells to IC50 for epimastigote form of Trypanosoma cruzi CL Brener. It is filed as toxicity, cell-based. To be noted: read-out: Ratio IC50.
The next data set has as its system Trypanosoma cruzi. The data set can be described thus: Trypanocidal activity against epimastigote form of Trypanosoma cruzi CL Brener assessed as reduction in parasitic growth after 4 days by Alamar blue assay. It is filed as functional. Particulars: 96 h.
For the next data set, the system named is Trypanosoma brucei. The data set is described as follows: Trypanocidal activity against bloodstream form of Trypanosoma brucei 427 assessed as reduction in parasitic growth after 48 hrs by Alamar blue assay. The class given is functional, organism-based. To be noted: Trypanosoma brucei, 427, 48 h.
The mark [3] stands for this setting: Rattus norvegicus, L6, 144 h, read-out: IC50.

For the compound `O=C(CC12CC3CC(CC(C3)C1)C2)N/N=C/c1ccc([N+](=O)[O-])o1`, the figures for the selectivity ratio in data set [1] and in data set [2] were 13 and 15, respectively. The IC50 in the data set on L6 (setting [3]) was determined as 3170 nM; in the data set with Trypanosoma cruzi, 205 nM; with Trypanosoma brucei it was 242 nM. The IC90 in the data set with Trypanosoma cruzi turned out to be 568 nM; with Trypanosoma brucei it was 553 nM.
Regarding `O=C(N/N=C/c1ccco1)C12CC3CC(CC(C3)C1)C2`, the half-inhibitory concentration (IC50) with L6 (setting [3]), in the data set on Trypanosoma cruzi and with Trypanosoma brucei was greater than 35000 nM each time. The IC90 with Trypanosoma cruzi and in the data set on Trypanosoma brucei was greater than 35000 nM in each case.
With `O=C(N/N=C/c1ccc([N+](=O)[O-])o1)C1C2CC3CC(C2)CC1C3` (stereo unspecified), the selectivity ratio in data set [1] is 83; in data set [2], 23. Also, the values for the IC50 in the data set with L6 (setting [3]), with Trypanosoma cruzi and in the data set with Trypanosoma brucei were 19200 nM, 844 nM and 231 nM, respectively. Further, the IC90 in the data set with Trypanosoma cruzi was found to be 1960 nM; with Trypanosoma brucei it was 599 nM.
Take `O=C(CCC12CC3CC(C1)CC(c1ccccc1)(C3)C2)N/N=C/c1ccc([N+](=O)[O-])o1`: the selectivity ratio in data set [1] came out at 51; in data set [2] it was 17. In addition, the IC50 in the data set on L6 (setting [3]) turned out to be 4590 nM; in the data set with Trypanosoma cruzi it was 238 nM; in the data set with Trypanosoma brucei, 90 nM. Also, the values for the IC90 in the data set on Trypanosoma cruzi and in the data set with Trypanosoma brucei were 654 nM and 167 nM, respectively.
For the compound `O=C(CC12CC3CC(CC(C3)C1)C2)N/N=C/c1ccco1`, the IC50 in the data set with L6 (setting [3]), in the data set on Trypanosoma cruzi and with Trypanosoma brucei was greater than 35000 nM in each case. Further, the IC90 in the data set with Trypanosoma cruzi and in the data set with Trypanosoma brucei was greater than 35000 nM in each case.
As to `O=C(CCC12CC3CC(C1)CC(C1CCCC1)(C3)C2)N/N=C/c1ccc([N+](=O)[O-])o1`, the selectivity ratio in data set [1] came out at 29; in data set [2], 33. In addition, the IC50 in the data set on L6 (setting [3]) was 4600 nM; in the data set on Trypanosoma cruzi it was 140 nM; in the data set on Trypanosoma brucei, 158 nM. Also, the IC90 was determined as 803 nM in the data set on Trypanosoma cruzi and 322 nM in the data set with Trypanosoma brucei.
For `O=C(CCC12CC3CC(CC(C3)C1)C2)N/N=C/c1ccco1`, the results for the IC50 in the data set with L6 (setting [3]), in the data set with Trypanosoma cruzi and in the data set on Trypanosoma brucei were greater than 30000 nM, 6090 nM and greater than 30000 nM, respectively. Moreover, the IC90 was 15700 nM in the data set on Trypanosoma cruzi and greater than 30000 nM with Trypanosoma brucei.
`O=C(N/N=C/c1ccc([N+](=O)[O-])o1)C12CC3CC(CC(C3)C1)C2`: the selectivity ratio in data set [1] was 9; in data set [2] it was 14. Also, the IC50 turned out to be 7720 nM in the data set with L6 (setting [3]), 561 nM with Trypanosoma cruzi and 851 nM with Trypanosoma brucei. The figures for the IC90 in the data set with Trypanosoma cruzi and with Trypanosoma brucei were 992 nM and 1040 nM, respectively.
For the compound `O=C(N/N=C/c1ccc([N+](=O)[O-])o1)C12CC3CC(C1)CC(C1CCCC1)(C3)C2`, the selectivity ratio in data set [1] amounted to 51; in data set [2], 49. Further, the IC50 was 11000 nM with L6 (setting [3]), 225 nM in the data set with Trypanosoma cruzi and 216 nM with Trypanosoma brucei. Besides, the values for the IC90 in the data set on Trypanosoma cruzi and with Trypanosoma brucei were 528 nM and 425 nM, respectively.
Take `O=C(CCC1C2CC3CC(C2)CC1C3)N/N=C/c1ccc([N+](=O)[O-])o1` (stereo unspecified): the results for the selectivity ratio in data set [1] and in data set [2] were 20 and 12, respectively. Besides, the values for the IC50 with L6 (setting [3]), in the data set with Trypanosoma cruzi and with Trypanosoma brucei were 2380 nM, 206 nM and 122 nM, respectively. In addition, the results for the IC90 with Trypanosoma cruzi and in the data set with Trypanosoma brucei were 513 nM and 177 nM, respectively.
Regarding `O=C(CC12CC3CC(C1)CC(C1CCCC1)(C3)C2)N/N=C/c1ccc([N+](=O)[O-])o1`, the selectivity ratio in data set [1] came out at 29; in data set [2], 49. Moreover, the values for the IC50 with L6 (setting [3]), in the data set with Trypanosoma cruzi and with Trypanosoma brucei were 8790 nM, 178 nM and 306 nM, respectively. Also, the IC90 in the data set with Trypanosoma cruzi came out at 329 nM; in the data set with Trypanosoma brucei, 459 nM.
In the case of `CCOC(=O)CC12CC3CC(CC(CC(=O)N/N=C/c4ccc([N+](=O)[O-])o4)(C3)C1)C2`, the selectivity ratio in data set [1] is 34; in data set [2] it was 32. For the same compound, the figures for the IC50 in the data set on L6 (setting [3]), in the data set on Trypanosoma cruzi and in the data set on Trypanosoma brucei were 7490 nM, 204 nM and 223 nM, respectively. Moreover, the IC90 with Trypanosoma cruzi was determined as 478 nM; in the data set on Trypanosoma brucei, 643 nM.
As for `O=C(CC1C2CC3CC(C2)CC1C3)N/N=C/c1ccc([N+](=O)[O-])o1` (stereo unspecified), the selectivity ratio in data set [1] is 26; in data set [2] it was 16. For the same compound, the IC50 in the data set with L6 (setting [3]) came out at 3260 nM; in the data set with Trypanosoma cruzi, 202 nM; in the data set with Trypanosoma brucei, 126 nM. Further, the IC90 in the data set with Trypanosoma cruzi stood at 381 nM; in the data set on Trypanosoma brucei, 207 nM.
In the case of `O=C(CCC12CC3CC(CC(C3)C1)C2)N/N=C/c1ccc([N+](=O)[O-])o1`, the selectivity ratio in data set [1] is 41; in data set [2], 56. For the same compound, the IC50 was found to be 16000 nM in the data set with L6 (setting [3]), 348 nM in the data set on Trypanosoma cruzi and 386 nM in the data set on Trypanosoma brucei. Besides, the figures for the IC90 in the data set with Trypanosoma cruzi and with Trypanosoma brucei were 719 nM and 560 nM, respectively.
Turning to `O=C(CC12CC3CC(C1)CC(c1ccccc1)(C3)C2)N/N=C/c1ccc([N+](=O)[O-])o1`, the figures for the selectivity ratio in data set [1] and in data set [2] were 23 and 55, respectively. Also, the figures for the IC50 in the data set on L6 (setting [3]), in the data set with Trypanosoma cruzi and in the data set with Trypanosoma brucei were 5020 nM, 91 nM and 221 nM, respectively. The IC90 was 180 nM in the data set with Trypanosoma cruzi and 573 nM with Trypanosoma brucei.
Consider `O=C(N/N=C/c1ccc([N+](=O)[O-])o1)C12CC3CC(C1)CC(c1ccccc1)(C3)C2`, for which the values for the selectivity ratio in data set [1] and in data set [2] were 47 and 31, respectively. The results for the IC50 with L6 (setting [3]), in the data set on Trypanosoma cruzi and in the data set with Trypanosoma brucei were 11400 nM, 368 nM and 244 nM, respectively. Also, the IC90 with Trypanosoma cruzi amounted to 676 nM; in the data set on Trypanosoma brucei, 406 nM.
In the case of `O=C(N/N=C/c1ccc([N+](=O)[O-])o1)C12CC3CC(C1)CC(C(=O)N/N=C/c1ccc([N+](=O)[O-])o1)(C3)C2`, the IC50 result is “ND(Insoluble)” in the data set on L6 (l6), greater than 2000 nM in the data set on Trypanosoma cruzi and 75 nM in the data set on Trypanosoma brucei. The IC90 in the data set with Trypanosoma cruzi was greater than 2000 nM; with Trypanosoma brucei, 98 nM.

For the origin of these results see ChEMBL document CHEMBL3817750, “New hydrazones of 5-nitro-2-furaldehyde with adamantanealkanohydrazides: synthesis and in vitro trypanocidal activity” (Medchemcomm, 2016).
